Where two headings read alike, the source gives them in different places.
What was measured:
[1] = test system: C57BL/6J mice; assay: Plasma insulin levels during OGTT; format: in vivo; settings: for Insulin levels at 0 min vs vehicle control group and HMS5552-40 mg/kg group: 0 min (pre-glucose); for Insulin levels at 15 min vs vehicle control group / Insulin levels at 15 min vs corresponding groups of HMS5552: 15 min post-glucose
Protocol: (§1) 104 C57BL/6J mice were randomly divided into 13 groups according to body weight, 8 mice per group. The first group were administered with vehicle solvent (5 mL/kg, PO) as the control group, other groups were administered with corresponding concentration of test compounds (5 mL/kg, PO). […] The oral glucose tolerance test (OGTT) was performed 1 hour after administration of test compounds. Blood glucose (BG) were measured at −60 min (pre-dose), 0 min (pre-glucose), 15 min, 30 min, 60 min and 120 min after glucose treatment. Blood samples (40 μl) were collected from tail veins at 0 min (pre-glucose), and 15 min (post-glucose) to separate plasma for insulin detection.
(§2) All data was transferred into an Excel spreadsheet. Blood glucose was expressed in mg/dL. All values were expressed as Mean±SEM. The significance of the differences between groups were evaluated by one-way ANOVA or two-way ANOVA followed by Dunnett's multiple comparisons test or Tukey's multiple comparisons test using GraphPad Prism 8. A p value of less than 0.05 is considered statistically significant.

[2] = test system: C57BL/6J mice; assay: Oral glucose tolerance test (OGTT), blood glucose; format: in vivo; settings: for AUC0-120min of blood glucose vs vehicle control group / BG values after glucose treatment vs HMS5552-40 mg/kg group / AUC0-120min of blood glucose vs corresponding groups of HMS5552 / BG values after glucose treatment vs vehicle control group: OGTT; for AUC0-120min of blood glucose vs vehicle control group: all low, middle, high dose groups; for AUC0-120min of blood glucose vs vehicle control group / BG values after glucose treatment vs HMS5552-40 mg/kg group / AUC0-120min of blood glucose vs corresponding groups of HMS5552 / BG values at 0 min (pre-glucose) vs vehicle control group / BG values after glucose treatment vs vehicle control group: PO; for BG values after glucose treatment vs HMS5552-40 mg/kg group: high dose group (Compound 3 49.1, Compound 6 46.1, Compound 7 48.6 mg/kg); for AUC0-120min of blood glucose vs corresponding groups of HMS5552: middle and high dose levels (equimolar to 15 and 40 mg/kg HMS5552); for BG values at 0 min (pre-glucose) vs vehicle control group: all treatment groups, 1 hour after administration; for BG values after glucose treatment vs vehicle control group: high dose group (HMS5552 40 mg/kg; Compound 3 49.1 mg/kg)
Protocol: as §1, §2

[3] = Pharmacokinetic studies in male SD rats (IV bolus and gavage); settings: rat, in vivo
Protocol: Samples were placed on wet ice until centrifugation (within 30 min). […] Supernatant plasma was pipetted, then quickly frozen over dry ice and kept at −60° C. or lower temperature until LC-MS/MS analysis.

[4] = Stability test of compounds in Simulated Gastric Fluid (SGF); format: in vitro ADME; settings: for Remaining of Test Compound (%): SGF pH about 1.20, 37° C., 2 μM; for Stability in SGF (in words): 24 hours
Protocol: The pH of the test solution was about 1.20±0.05.
(§3) Then 200 μL of supernatant was pipetted and mixed completely again with 400 μL of cold acetonitrile containing 200 ng/mL tolbutamide (internal standard). • 7) All samples were centrifuged at 4000 rpm, 4° C. for 20 min. • 8) 60 μL of supernatant was pipetted and mixed with 180 μL of ultra-pure water, and the mixture was mixed completely for LC-MS/MS analysis.

[5] = Simulated metabolic test of compounds in Human Intestine S9; format: in vitro ADME; settings: for Remaining of Test Compound (%): HIS9 0.5 mg/mL, 37° C.
Protocol: Preparation of Phosphate Buffer (PB): Dissolve 73.21 g K2TIPO4·3H2O (AR grade) and 10.78 g KH2PO4 (AR grade) in ultra-pure water to make the final volume to 4000 mL and the final concentration to 100 mM. The pH of the final test solution was adjusted to pH 7.40±0.10 with H3PO4/KOH.
An Apricot automation workstation was used to add 50 μL/well of HIS9 solution to the corresponding wells of all reaction plates (blank, T0, T5, T15, T30, T45, T60).
Using an Apricot automation workstation, 2 μL/well of test compound working solution was added to the corresponding wells of all 96-well reaction plates except the blank (T0, T5, T15, T30, T45, T60).
An Apricot automation workstation was used to add 48 μL/well of PB to the corresponding wells of every reaction plate (Blank, T0, T5, T15, T30, T45, T60) to start the reaction.
The reaction plates were incubated at 37° C., and timer was started. An Apricot automation workstation was used to add 300 μL/well of stop solution (cold acetonitrile containing 200 ng/mL tolbutamide (internal standard)) to the corresponding wells of each reaction plate at its appropriate end time point to terminate the reaction.
Each plate was sealed and shaken for 10 minutes. After shaking, each plate was centrifuged at 4000 rpm and 4° C. for 20 minutes. After centrifugation, 100 μL of supernatant was transferred from each reaction plate to its corresponding bioanaylsis plate, and mixed well with 300 μL ultra-pure water.

[6] = for Remaining of Test Compound (%): SIF pH about 6.80, 37° C., 2 μM
Protocol: Preparation of Simulated Intestinal Fluid (SIF): Dissolve 0.136 g KH2PO4 and 0.2 g pancreatin with water and make up the final volume to 20 mL. The pH of the test solution was about 6.80±0.05.
as §3

[7] = test system: Caco-2 cells; assay: Bi-directional permeability test using Caco-2 cells; settings: for The average Apparent Permeability Papp A→B: 2 hours, pH 7.40
[8] = high dose (Compound 3 49.1, Compound 6 46.1, Compound 7 48.6 mg/kg)
[9] = high dose (Compound 6 46.1, Compound 7 48.6 mg/kg)
[10] = middle dose (Compound 3 18.4, Compound 7 18.2 mg/kg)
[11] = Caco-2, Compound 3 concentration 2.00 μM
[12] = Caco-2, Compound 3 concentration 10.0 μM
[13] = Caco-2, Compound 3 concentration 30.0 μM

Compound | Insulin levels at 0 min vs vehicle control group and HMS5552-40 mg/kg group [1, 8] | Insulin levels at 15 min vs vehicle control group [1, 8] | Insulin levels at 15 min vs corresponding groups of HMS5552 [1, 9] | Insulin secretion and glucose-lowering effect as compared to HMS5552 (in words) [2] | AUC0-120min of blood glucose vs vehicle control group [2] | BG values after glucose treatment vs HMS5552-40 mg/kg group [2] | AUC0-120min of blood glucose vs corresponding groups of HMS5552 [2] | BG values at 0 min (pre-glucose) vs vehicle control group [2] | Metabolism after intravenous injection (in words) [3] | Stability in SGF (in words) [4] | Insulin levels at 15 min vs vehicle control group [1, 10] | Metabolism in human intestinal S9 (in words) ([5]; HIS9) | Remaining of Test Compound (%) ([5]; time point 5 min) | Remaining of Test Compound (%) ([5]; time point 15 min) | Remaining of Test Compound (%) ([5]; time point 30 min) | Remaining of Test Compound (%) ([5]; time point 45 min) | Remaining of Test Compound (%) ([5]; time point 60 min) | Degradation in SIF (in words) [6] | BG values after glucose treatment vs vehicle control group [2] | further results
CC(C)C[C@@H](C(=O)Nc1ccn(C[C@@H](O)COC(=O)[C@H](C)N)n1)N1CC(Oc2ccccc2Cl)=CC1=O [Compound 6] | significantly higher than the vehicle control group and HMS5552-40 mg/kg group at 0 min | significantly higher than the vehicle control group at 15 min | significantly higher than the corresponding groups of HMS5552 at 15 min | increased insulin secretion and greater glucose-lowering effect as compared to HMS5552 | significantly lower than the vehicle control group, with dose-response relationship | significantly lower than HMS5552-40 mg/kg group at 15 min, 30 min, 60 min, and 120 min | significantly lower than the corresponding groups of HMS5552 (P<0.01) | overall lower than the vehicle control group, with dose-response relationship | – | – | – | – | – | – | – | – | – | – | – | –
CC(C)C[C@@H](C(=O)Nc1ccn(C[C@@H](O)COC(=O)[C@@H](N)C(C)C)n1)N1CC(Oc2ccccc2Cl)=CC1=O [Compound 7] | significantly higher than the vehicle control group and HMS5552-40 mg/kg group at 0 min | significantly higher than the vehicle control group at 15 min | significantly higher than the corresponding groups of HMS5552 at 15 min | increased insulin secretion and greater glucose-lowering effect as compared to HMS5552 | significantly lower than the vehicle control group, with dose-response relationship | significantly lower than HMS5552-40 mg/kg group at 15 min, 30 min, 60 min, and 120 min | significantly lower than the corresponding groups of HMS5552 (P<0.01) | overall lower than the vehicle control group, with dose-response relationship | metabolized very rapidly in rats by intravenous injection | stable in SGF for 24 hours | significantly higher than the vehicle control group at 15 min | well metabolized in human intestinal S9 | 30.7% | 18.8% | 7.2% | 3.9% | 2.7% | extensively degraded in SIF | – | Exposures (Cmax, Cmax ratio, AUC, AUC ratio) when administered orally vs parent drug (in words) ([3]; male, SD, po): comparable to the parent drug HIMS5552; Remaining of Test Compound (%) ([4]; time point 0 hr): 100.00%; Remaining of Test Compound (%) ([4]; time point 1 hr): 103.14%; Remaining of Test Compound (%) ([4]; time point 2 hr): 104.44%; Remaining of Test Compound (%) ([4]; time point 6 hr): 102.68%; Remaining of Test Compound (%) ([4]; time point 24 hr): 108.07%; Remaining of Test Compound (%) ([5]; time point 0 min): 100%; Remaining of Test Compound (%) ([6]; time point 0 hr): 100.00%; Remaining of Test Compound (%) ([6]; time point 1 hr): 25.13%; Remaining of Test Compound (%) ([6]; time point 2 hr): 3.50%; Remaining of Test Compound (%) ([6]; time point 6 hr): 4.88%; Remaining of Test Compound (%) ([6]; time point 24 hr): 0.00%
CC(C)C[C@@H](C(=O)Nc1ccn(C[C@@H](O)COC(=O)c2cccnc2)n1)N1CC(Oc2ccccc2Cl)=CC1=O [Compound 3] | significantly higher than the vehicle control group and HMS5552-40 mg/kg group at 0 min | significantly higher than the vehicle control group at 15 min | – | increased insulin secretion and greater glucose-lowering effect as compared to HMS5552 | significantly lower than the vehicle control group, with dose-response relationship | significantly lower than HMS5552-40 mg/kg group at 30 min, 60 min, and 120 min | significantly lower than the corresponding groups of HMS5552 (P<0.01) | overall lower than the vehicle control group, with dose-response relationship | metabolized very rapidly in rats by intravenous injection | stable in SGF for 24 hours | significantly higher than the vehicle control group at 15 min | well metabolized in human intestinal S9 | 0% | 0% | 0% | 0% | 0% | extensively degraded in SIF | significantly lower than the vehicle control group at 15 min, 30 min, 60 min, and 120 min | clearance ([3]; male SD rats, IV bolus 10 mg/kg, analyte prodrug): 290 mL/min/kg; Tmax ([3]; male SD rats, PO 30 mg/kg, analyte prodrug, read-out: Tmax (median)): 15 min; Insulin levels at 15 min vs corresponding groups of HMS5552 ([1]; middle dose (Compound 3 18.4 mg/kg)): significantly higher than the corresponding groups of HMS5552 at 15 min; Time within which completely metabolized and converted into parent drug HMS5552 ([5]; HIS9): ≤ 5 min; Average Recovery Rate (%) A→B [7, 11]: 52.9%; Average Recovery Rate (%) B→A [7, 11]: 87.1%; The average Apparent Permeability Papp A→B [7, 11]: 0.02977 10^−6 cm/s; Average Recovery Rate (%) A→B [7, 12]: 37.5%; Average Recovery Rate (%) B→A [7, 12]: 81.6%; The average Apparent Permeability Papp A→B [7, 12]: 0.03187 10^−6 cm/s; Average Recovery Rate (%) B→A [7, 13]: 82.2%; The average Apparent Permeability Papp A→B [7, 13]: 0.04322 10^−6 cm/s
CC(C)C[C@@H](C(=O)Nc1ccn(C[C@@H](O)CO)n1)N1CC(Oc2ccccc2Cl)=CC1=O [HMS5552, (S)-2-[4-(2-chloro-phenoxy)-2-oxo-2,5-dihydro-pyrrol-1-yl]-4-methyl-pentanoic acid [1-((R)-2,3-dihydroxy-propyl)-1H-pyrazol-3-yl]-amide, reference compound] | – | – | – | – | significantly lower than the vehicle control group, with dose-response relationship | – | – | overall lower than the vehicle control group, with dose-response relationship | – | – | – | – | – | – | – | – | – | – | significantly lower than the vehicle control group at 30 min, 60 min and 120 min | Insulin levels vs vehicle control group ([1]; HMS5552 groups, 0 min and 15 min): slightly higher than the vehicle control group at 0 min and 15 min, without significant difference

— US12054477B2, “Prodrug of pyrrolidone derivatives as glucokinase activator” (HUA MEDICINE (SHANGHAI) LTD., priority 2021, dated 2024)
